Assay results published in PubChem BioAssay (NCI).
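Cells were grown in 96-well plates and exposed to each compound for 48 hours at five concentrations; endpoints were interpolated linearly between bracketing concentrations, or set to the highest concentration if not reached. The concentration for 50% growth inhibition is given as GI50. TGI marks complete inhibition of growth.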

Tests used:
Assay in all cases: NCI-60 cell line screen, 48 h
[1] = test system: HCT-15 colon
[2] = test system: SF-295 CNS
[3] = test system: OVCAR-8 ovarian
[4] = test system: COLO 205 colon
[5] = test system: SF-268 CNS
[6] = test system: SR leukemia
[7] = test system: K-562 leukemia
[8] = test system: SN12C renal
[9] = test system: BT-549 breast
[10] = test system: SF-539 CNS
[11] = test system: NCI/ADR-RES ovarian
[12] = test system: UACC-62 melanoma
[13] = test system: IGROV1 ovarian
[14] = test system: HOP-62 NSCLC
[15] = test system: SNB-19 CNS
[16] = test system: HCC-2998 colon
[17] = test system: HT29 colon
[18] = test system: HOP-92 NSCLC
[19] = test system: NCI-H23 lung
[20] = test system: NCI-H522 lung
[21] = test system: T-47D breast
[22] = test system: 786-0 renal
[23] = test system: A549 NSCLC
[24] = test system: SK-MEL-28 melanoma
[25] = test system: HL-60(TB) leukemia
[26] = test system: DU-145 prostate
[27] = test system: OVCAR-5 ovarian
[28] = test system: UACC-257 melanoma
[29] = test system: SK-MEL-2 melanoma
[30] = test system: OVCAR-3 ovarian
[31] = test system: CAKI-1 renal
[32] = test system: UO-31 renal
[33] = test system: MDA-MB-435
[34] = test system: SK-MEL-5 melanoma
[35] = test system: ACHN renal
[36] = test system: SK-OV-3 ovarian
[37] = test system: EKVX NSCLC
[38] = test system: M14 melanoma
[39] = test system: A498 renal
[40] = test system: OVCAR-4 ovarian
[41] = test system: TK-10 renal
[42] = test system: U251 CNS
[43] = test system: NCI-H226 lung
[44] = test system: MCF7 breast
[45] = test system: PC-3 prostate
[46] = test system: SNB-75 CNS
[47] = test system: SW-620 colon
[48] = test system: RXF 393 renal
[49] = test system: HS 578T breast
[50] = test system: MDA-MB-231 breast
[51] = test system: KM12 colon
[52] = test system: MOLT-4 leukemia
[53] = test system: LOX IMVI melanoma
[54] = test system: MALME-3M melanoma

**Q.** What does the source list for `O=C1c2cc3c(cc2[C@@H]2[C@H]1c1ccc([N+](=O)[O-])cc1C(=O)N2CCCBr)OCO3`?
**A.** GI50 [1]: < 22.6 nM; TGI [1]: 656 nM; GI50 [2]: < 10 nM; GI50 [3]: < 10 nM; TGI [3]: 271 nM; GI50 [4]: < 10 nM; TGI [4]: > 100000 nM; GI50 [5]: < 10 nM; TGI [5]: 394 nM; GI50 [6]: < 10 nM; TGI [6]: < 10 nM; GI50 [7]: < 12.1 nM; TGI [7]: 444 nM; GI50 [8]: < 10 nM; TGI [8]: < 10 nM; GI50 [9]: < 10 nM; TGI [9]: 411 nM; GI50 [10]: < 10 nM; TGI [10]: < 10 nM; GI50 [11]: < 10 nM; TGI [11]: 17.7 nM; GI50 [12]: < 10 nM; TGI [12]: < 10 nM; GI50 [13]: < 13.6 nM; GI50 [14]: < 10 nM; TGI [14]: < 48.6 nM; GI50 [15]: < 10 nM; TGI [15]: > 100000 nM; GI50 [16]: < 12.5 nM; TGI [16]: 117 nM; GI50 [17]: < 10 nM; TGI [17]: > 100000 nM; GI50 [18]: < 10 nM; TGI [18]: < 10 nM; GI50 [19]: < 10 nM; TGI [19]: 77.5 nM; GI50 [20]: < 26.6 nM; GI50 [21]: < 10 nM; TGI [21]: > 100000 nM; GI50 [22]: < 10 nM; TGI [22]: < 10 nM; GI50 [23]: < 10 nM; TGI [23]: 86.5 nM; GI50 [24]: < 10 nM; TGI [24]: > 100000 nM; GI50 [25]: < 10 nM; TGI [25]: > 100000 nM; GI50 [26]: < 10 nM; GI50 [27]: < 15.8 nM; GI50 [28]: < 10 nM; TGI [28]: > 100000 nM; GI50 [29]: 2150 nM; TGI [29]: > 100000 nM; GI50 [30]: < 37 nM; GI50 [31]: < 10 nM; TGI [31]: < 33.5 nM; GI50 [32]: < 10 nM; TGI [32]: > 100000 nM; GI50 [33]: < 10 nM; TGI [33]: 219 nM; GI50 [34]: < 10 nM; TGI [34]: 10.1 nM; GI50 [35]: < 10 nM; TGI [35]: < 10 nM; GI50 [36]: < 10 nM; TGI [36]: > 100000 nM; GI50 [37]: 37.9 nM; TGI [37]: 501 nM; GI50 [38]: < 10 nM; TGI [38]: 318 nM; GI50 [39]: < 10 nM; TGI [39]: < 10 nM; GI50 [40]: 77.1 nM; TGI [40]: 7000 nM; GI50 [41]: 134 nM; TGI [41]: 4040 nM; GI50 [42]: < 10 nM; GI50 [43]: < 10 nM; TGI [43]: < 10 nM; GI50 [44]: < 10 nM; TGI [44]: < 10 nM; GI50 [45]: < 10 nM; TGI [45]: 184 nM; GI50 [46]: < 10 nM; TGI [46]: 77.5 nM; GI50 [47]: < 10 nM; TGI [47]: 3640 nM; GI50 [48]: < 10 nM; TGI [48]: < 10 nM; GI50 [49]: 381 nM; TGI [49]: 11500 nM; GI50 [50]: 187 nM; TGI [50]: 699 nM; GI50 [51]: 43.7 nM; TGI [51]: 3950 nM; GI50 [52]: < 10 nM; TGI [52]: 54.1 nM; GI50 [53]: < 10 nM; TGI [53]: < 11.7 nM; GI50 [54]: < 18.9 nM; TGI [54]: 168 nM
